This passage reports IC50 results from patent publication US9758492B2, “IDO inhibitors” (Bristol-Myers Squibb Company, priority 2013, dated 2017).

In the assay the target is IDO (Homo sapiens, UniProt P14902). In words: LLE_IDO_ABS_DR (IDO assay).
IDO, sequence (P14902 whole entry): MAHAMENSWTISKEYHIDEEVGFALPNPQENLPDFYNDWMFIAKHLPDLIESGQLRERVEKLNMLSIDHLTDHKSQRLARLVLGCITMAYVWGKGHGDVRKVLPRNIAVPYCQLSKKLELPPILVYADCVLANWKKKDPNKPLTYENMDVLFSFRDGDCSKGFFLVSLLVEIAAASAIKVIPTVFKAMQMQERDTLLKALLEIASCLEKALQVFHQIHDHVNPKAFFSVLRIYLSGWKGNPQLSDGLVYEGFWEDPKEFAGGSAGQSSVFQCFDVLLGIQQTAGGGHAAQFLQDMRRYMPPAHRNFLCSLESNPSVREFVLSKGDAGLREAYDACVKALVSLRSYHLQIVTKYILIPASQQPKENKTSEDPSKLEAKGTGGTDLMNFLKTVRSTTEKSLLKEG

With `Cc1ccc(NC(=O)Nc2cc(-c3cc(F)ccc3C(=O)O)ccc2N(CCC(C)C(F)(F)F)CC(C)C)cc1` (centres unmarked) [Example 203, 5-fluoro-4′-(isobutyl (4,4,4-trifluoro-3-methylbutyl)amino)-3′-(3-(p-tolyl)ureido)-[1,1′-biphenyl]-2-carboxylic acid], the IC50 (in general, the midpoint of a concentration-inhibition curve) worked out at 7.31 nM. As for `Cc1ccc(NC(=O)Nc2cc(-c3ccccc3-c3nnn[nH]3)ccc2N(CCC(C)(C)O)Cc2ccc(Cl)cc2)cc1` [Example 375], it took 4740 nM to reach half-maximal inhibition (IC50). Compared with the last compound, the IC50 is about 650-fold higher. Then `Cc1ccc(NC(=O)Nc2cc(-c3ccccc3C(=O)O)ccc2Nc2ccccc2C(C)(C)C)cc1` [Example 206, 4′((2-(tert-butyl)phenyl)amino)-3′-(3-(p-tolyl)ureido)-[1,1′-biphenyl]-2-carboxylic acid], with 600 nM. The figure for `Cc1ccc(NC(=O)Nc2cc(-c3ccccc3C(=O)O)ccc2N(CC(C)C)C2CCCC2)cc1` [Example 172, 4′-(cyclopentyl(isobutyl)amino)-3′-(3-p-tolylureido)biphenyl-2-carboxylic acid] is 10 nM. Then `[2H]C([2H])(C(C)C)N(c1ccc(-c2ccccc2C(=O)O)cc1NC(=O)Nc1ccccc1F)C1CCCCC1` [Example 33, 4′-(Cyclohexyl(1,1-dideutero-2-methylpropyl)amino)-3′-(3-(2-fluorophenyl)ureido)biphenyl-2-carboxylic acid], with 4.99 nM; and `CC(C)CN(CC(C)C)c1ccc(-c2ccccc2-c2nnn[nH]2)cc1NC(=O)Nc1ccccc1-n1cncn1` [Example 256, 1-(2-(1H-1,2,4-triazol-1-yl)phenyl)-3-(4-(diisobutylamino)-2′-(1H-tetrazol-5-yl)-[1,1′-biphenyl]-3-yl)urea], with 4180 nM.

The compound `Cc1ccc(NC(=O)Nc2cc(-c3ccccc3-c3nnn[nH]3)ccc2N(CC(C)C)CC(C)C)cc1F` [Example 287, 1-(4-(diisobutylamino)-2′-(1H-tetrazol-5-yl)-[1,1′-biphenyl]-3-yl)-3-(3-fluoro-4-methylphenyl)urea] registered an IC50 of 4.47 nM. Then `CC(C)CN(c1ccc(-c2ccccc2C(=O)O)cc1NC(=O)Nc1ccc(C(F)(F)F)cc1)C1CCC(F)(F)CC1` [Example 513], with 10 nM; and `C#Cc1cccc(NC(=O)Nc2cc(-c3ccccc3-c3nnn[nH]3)ccc2N(CC(C)C)CC(C)C)c1` [Example 241, 1-(4-(diisobutylamino)-2′-(1H-tetrazol-5-yl)-[1,1′-biphenyl]-3-yl)-3-(3-ethynylphenyl)urea], with 20 nM. On to `Cc1ccc(NC(=O)Nc2cc(-c3ccccc3C(=O)O)ccc2N(CCC(F)(F)F)CC(C)C)cc1` [Example 198, 4′-(isobutyl(3,3,3-trifluoropropyl)amino)-3′-(3-(p-tolyl)ureido)-[1,1′-biphenyl]-2-carboxylic acid], for which the IC50 worked out at 210 nM.

`CCN(CC(C)(C)C)c1ccc(-c2ccccc2C(=O)O)cc1NC(=O)Nc1ccc(C)cc1` [Example 111, 4′-(ethyl(neopentyl)amino)-3′-(3-p-tolylureido)biphenyl-2-carboxylic acid] registered an IC50 of 210 nM. This counts as sub-micromolar.

`CC(C)CN(c1ccc(-c2ccccc2C(=O)O)cc1NC(=O)Nc1ccccc1F)C1CCCCC1` [Example 122, 4′-(cyclohexyl(isobutyl)amino)-3′-(3-(2-fluorophenyl)ureido) biphenyl-2-carboxylic acid] registered an IC50 of 3.47 nM. Compared with the last compound, the IC50 is about 61-fold lower.

`CCCN(c1ccc(-c2ccccc2C(=O)O)cc1NC(=O)Nc1ccccc1F)C1CCCC1` [Example 168, 4′-(cyclopentyl(propyl)amino)-3′-(3-(2-fluorophenyl)ureido) biphenyl-2-carboxylic acid] gave an IC50 of 30 nM. The figure for `Cc1ccc(NC(=O)Nc2cc(-c3cc(F)ccc3C(=O)O)ccc2N(CCC(C)C(F)(F)F)C2CCCCC2)cc1` (centres unmarked) [Example 189, 4′-(cyclohexyl(4,4,4-trifluoro-3-methylbutyl)amino)-5-fluoro-3′-(3-(p-tolyl)ureido)-[1,1′-biphenyl]-2-carboxylic acid] is 480 nM; for `Cc1ccc(NC(=O)Nc2cc(-c3cc(F)ccc3C(=O)O)ccc2N(CC(C)C)C2CCCC2)cc1` [Example 171, 4′-(cyclopentyl(isobutyl)amino)-5-fluoro-3′-(3-p-tolylureido)biphenyl-2-carboxylic acid] it is 20 nM; for `Cc1ccc(NC(=O)Nc2cc(-c3ccccc3C(=O)O)ccc2N(CCC(F)(F)F)Cc2cccc(Cl)c2)cc1` [Example 11, 4′-((3-Chlorobenzyl)(3,3,3-trifluoropropyl)amino)-3′-(3-(p-tolyl)ureido)-[1,1′-biphenyl]-2-carboxylic acid] it is 250 nM. Then `CC(C)CN(c1ccc(-c2ccccc2-c2nnn[nH]2)cc1NC(=O)Nc1ccccc1F)C1CCCC1` [Example 175, 1-(4-(cyclopentyl (isobutyl)amino)-2′-(1H-tetrazol-5-yl)biphenyl-3-yl)-3-(2-fluorophenyl)urea], with 4.36 nM.

Take `CC(C)CN(CC(C)C)c1ccc(-c2ccccc2-c2nnn[nH]2)cc1NC(=O)Nc1ccc(-c2cnco2)cc1` [Example 255, 1-(4-(diisobutylamino)-2′-(1H-tetrazol-5-yl)-[1,1′-biphenyl]-3-yl)-3-(4-(oxazol-5-yl)phenyl)urea]: half-maximal inhibition (IC50) required 30 nM. The figure for `CN(c1ccc(-c2cc(F)ccc2C(=O)O)cc1NC(=O)Nc1ccccc1F)c1ccccc1C(C)(C)C` [Example 479] is 3800 nM; for `[2H]C([2H])(C(C)C)N(c1ccc(-c2ccccc2-c2nnn[nH]2)cc1NC(=O)Nc1ccc(C)cc1)C1CCCCC1` [Example 29, 1-(4-(Cyclohexyl(1,1-dideutero-2-methylpropyl)amino)-2′-(1H-tetrazol-5-yl)biphenyl-3-yl)-3-p-tolylurea] it is 4.76 nM; for `Cc1ccc(NC(=O)Nc2cc(-c3ccccc3C(=O)O)ccc2N(CC(C)C)C2CCCCC2)cc1` [Example 119, 4′-(cyclohexyl (isobutyl)amino)-3′-(3-p-tolylureido)biphenyl-2-carboxylic acid] it is 5.19 nM. The figure for `Cc1ccc(NC(=O)Nc2cc(-c3cc(F)ccc3C(=O)O)ccc2N(CC(C)C)C2CCCCC2)cc1` [Example 124, 4′-(cyclohexyl(isobutyl)amino)-5-fluoro-3′-(3-p-tolylureido)biphenyl-2-carboxylic acid] is 5.18 nM. The figure for `Cc1ccc(NC(=O)Nc2cc(-c3ccccc3-c3nnn[nH]3)ccc2N(CC(C)C)C2CCCCC2)cc1` [Example 118, 1-(4-(cyclohexyl(isobutyl)amino)-2′-(1H-tetrazol-5-yl)biphenyl-3-yl)-3-p-tolylurea] is 4.76 nM; for `Cc1ccc(NC(=O)Nc2cc(-c3ccccc3-c3nnn[nH]3)ccc2N(C)c2ccccc2C(C)(C)C)cc1` [Example 210, 1-(4-((2-(tert-butyl)phenyl)(methyl)amino)-2′-(1H-tetrazol-5-yl)-[1,1′-biphenyl]-3-yl)-3-(p-tolyl)urea] it is 210 nM.

On to `Cc1ccc(NC(=O)Nc2cc(-c3ccccc3C(=O)O)ccc2N(CC(C)C)CC2CC2)cc1` [Example 93, 4′-((cyclopropylmethyl) (isobutyl)amino)-3′-(3-p-tolylureido) biphenyl-2-carboxylic acid], for which the IC50 was 80 nM. Then `CC(C)CN(CCC(C)C(F)(F)F)c1ccc(-c2ccccc2-c2nnn[nH]2)cc1NC(=O)Nc1ccccc1F` (centres unmarked) [Example 201, 1-(2-fluorophenyl)-3-(4-(isobutyl(4,4,4-trifluoro-3-methylbutyl)amino)-2′-(1H-tetrazol-5-yl)-[1,1′-biphenyl]-3-yl)urea], with 4.46 nM. The figure for `Cc1ccc(NC(=O)Nc2cc(-c3ccccc3-c3nnn[nH]3)ccc2N2CCCc3ccccc32)cn1` [Example 362, 1-(4-(3,4-Dihydroquinolin-1(2H)-yl)-2′-(1H-tetrazol-5-yl)-[1,1′-biphenyl]-3-yl)-3-(6-methylpyridin-3-yl)urea] is 5490 nM; for `CC(C)CN(c1ccc(-c2cc(F)ccc2C(=O)O)cc1NC(=O)Nc1ccccc1C(F)(F)F)C1CCCCC1` [Example 163, 4′-(cyclohexyl (isobutyl)amino)-5-fluoro-3′-(3-(2-(trifluoromethyl)phenyl)ureido) biphenyl-2-carboxylic acid] it is 1030 nM. The figure for `Cc1ccc(NC(=O)Nc2cc(-c3ccccc3-c3nnn[nH]3)ccc2N(CCc2ccccc2)CCC(F)(F)F)cc1` [Example 334, 1-(4-(phenethyl(3,3,3-trifluoropropyl)amino)-2′-(1H-tetrazol-5-yl)-[1,1′-biphenyl]-3-yl)-3-(p-tolyl)urea] is 20 nM. In the case of `Cc1ccc(NC(=O)Nc2cc(-c3ccc(F)cc3NS(=O)(=O)C(F)(F)F)ccc2N(CC(C)C)CC(C)C)cc1` [Example 81, N-(4′-(diisobutylamino)-4-fluoro-3′-(3-p-tolylureido)biphenyl-2-yl)-1,1,1-trifluoromethane-sulfonamide], the midpoint of inhibition, the IC50, lay at 270 nM. With `O=C(Nc1ccc(C2CC2)c(F)c1)Nc1cc(-c2ccccc2-c2nnn[nH]2)ccc1N(CCc1ccccc1)CCC(F)(F)F` [Example 296, 1-(4-Cyclopropyl-3-fluorophenyl)-3-(4-(phenethyl(3,3,3-trifluoropropyl)amino)-2′-(1H-tetrazol-5-yl)biphenyl-3-yl)urea], the IC50 was determined as 180 nM. Then `CCN(CCOC)c1ccc(-c2ccccc2-c2nnn[nH]2)cc1NC(=O)Nc1ccc(C)cc1` [Example 73, 1-(4-(ethyl(2-methoxyethyl)amino)-2′-(1H-tetrazol-5-yl)biphenyl-3-yl)-3-p-tolylurea], with 150 nM. The compound `Cc1ccc(NC(=O)Nc2c(N(CC(C)C)CC(C)C)ccc(-c3ccccc3-c3nnn[nH]3)c2F)cc1` [Example 25, 1-(4-(Diisobutylamino)-2-fluoro-2′-(1H-tetrazol-5-yl)-[1,1′-biphenyl]-3-yl)-3-(p-tolyl)urea] displayed an IC50 of 30 nM.

With `CC(C)CN(CC(C)C)c1ccc(-c2ccccc2-c2nnn[nH]2)cc1NC(=O)Nc1ccccn1` [Example 238, 1-(4-(Diisobutylamino)-2′-(1H-tetrazol-5-yl)-[1,1′-biphenyl]-3-yl)-3-(pyridin-2-yl)urea], the IC50 was 750 nM. Then `CC(C)CN(CC(C)C)c1ccc(-c2ccccc2-c2nnn[nH]2)cc1NC(=O)Nc1cccc(-n2ccnc2)c1` [Example 267, 1-(3-(1H-imidazol-1-yl)phenyl)-3-(4-(diisobutylamino)-2′-(1H-tetrazol-5-yl)-[1,1′-biphenyl]-3-yl)urea], with 1460 nM.
